Data taken from patent publication US6713500B2, “Agent for controlling animal diseases caused by parasites” (Ishihara Sangyo Kaisha Ltd., priority 1999, dated 2004).
Where two headings read alike, the source gives them in different places.

Tested on: Eimeria tenella of wild type (fresh immature oocysts)
Assay: microbe, parasite or virus in culture
Format: cell-based
Settings: read-out: Mortality of oocysts (%)
Experimental: Chicks were infested with Eimeria tenella of wild type to obtain fresh immature oocycts. The obtained fresh immature oocysts were exposed to a solution of each test substance having a predetermined concentration for 10 or 30 minutes. The exposed immature oocysts were centrifuged at 1500 min^−1 for 5 minutes, and the supernatant was removed. Then, a 2% potassium bichromate aqueous solution was added, and sporulation was carried out at 25° C. for 4 days, whereupon the ratio of mature oocysts (sporulated oocysts) to the number of observed oocysts, was calculated.
Mortality of oocysts={1−(sporulation rate with exposure to test substance)/(sporulation rate without exposure to test substance)}×100

SMILES: Cc1ccc(-c2c(Cl)nc(C#N)n2S(=O)(=O)N(C)C)cc1 [compound 1, 4-chloro-2-cyano-1-dimethylsulfamoyl-5-(4-methylphenyl)imidazole]
- mortality at 0.1 ppm (10 min): 43.8%
- mortality at 1 ppm (10 min): 36.9%
- mortality at 10 ppm (10 min): 42.5%
- mortality at 0.1 ppm (0.5 h): 51.1%
- mortality at 1 ppm (0.5 h): 80.3%
- mortality at 10 ppm (0.5 h): 87.9%

SMILES: CCc1ccc(C(F)c2c(Cl)nc(C#N)n2S(=O)(=O)N(C)C)cc1 (stereo not drawn) [compound 5, 4-chloro-2-cyano-1-dimethylsulfamoyl-5-(4-ethyl-α-fluorobenzyl)imidazole]
- mortality at 0.1 ppm (10 min, Exposure time: 10 min, 0.1 ppm): 34.4%
- mortality at 1 ppm (10 min, Exposure time: 10 min, 1 ppm): 30%
- mortality at 10 ppm (10 min, Exposure time: 10 min, 10 ppm): 75%
- mortality at 0.1 ppm (0.5 h, Exposure time: 30 min, 0.1 ppm): 71.3%
- mortality at 1 ppm (0.5 h, Exposure time: 30 min, 1 ppm): 75.2%
- mortality at 10 ppm (0.5 h, Exposure time: 30 min, 10 ppm): 72.6%
